Data set [1] has as its system glycosyltransferase (crude α2,6-sialyltransferase) of P. damsela ATCC33539. In words: Effect of NaCl on activity of crude α2,6-sialyltransferase from P. damselae ATCC33539. The format is biochemical, Photobacterium damselae. The protocol:
(§1) ATCC33539T and ATCC35083, which were strains belonging to Photobacterium damselae but different from JT0160, were cultured and the resulting cells were used to prepare crude enzyme solutions according to the procedure for preparing a crude enzyme solution of P. damselae JT0160 (Purification and characterization of a Marine bacterial β-Galactoside α2,6-Sialyltransferase from Photobacterium damselae JT0160 J. Biochem. 120, 104-110, 1996). These crude enzymes were used in the following experiment.
(§2) The enzyme reaction was accomplished in 20 μl reaction solution containing CMP-^14C-NeuAc as a glycosyl donor substrate (50.066 nmol, 25000 cpm), lactose as a glycosyl acceptor substrate (1 mmol), glycosyltransferase derived from various strains (1 mU or less) and NaCl at a concentration of 0.5 M (30° C., 1 minute). After completion of the enzymatic reaction, the radioactivity of NeuAc which was transferred to lactose under the respective conditions was measured to calculate the enzyme activity, thereby studying the effect of NaCl on the enzyme activity in each test range. More specifically, after completion of the reaction, each reaction solution was supplemented with 1.98 ml of 5 mM phosphate buffer (pH 6.8) and applied to a AG1−×2Resin (PO4^3− form, 0.2×2 cm) column. […] The eluate (0 to 2 ml) from this column was measured for its radioactivity.

The subject of data set [2] is glycosyltransferase (crude α2,6-sialyltransferase) of P. damsela ATCC35083. In words: Effect of NaCl on activity of crude α2,6-sialyltransferase from P. damselae ATCC35083. The format is biochemical, Photobacterium damselae. How it is done: as §1, §2
In data set [3] the target is T1, deletion mutant of recombinant α2,6-sialyltransferase; N2C1, derived from P. damselae JT0160 (Photobacterium damselae, UniProt O66375).
T1 construct: lacks the N-terminal (Met) 107 amino acid residues and the C-terminal 176 amino acid residues; made in house; host or cells: E. coli, crude enzyme solution
T1 sequence (O66375 entry or part of it, stated change not applied): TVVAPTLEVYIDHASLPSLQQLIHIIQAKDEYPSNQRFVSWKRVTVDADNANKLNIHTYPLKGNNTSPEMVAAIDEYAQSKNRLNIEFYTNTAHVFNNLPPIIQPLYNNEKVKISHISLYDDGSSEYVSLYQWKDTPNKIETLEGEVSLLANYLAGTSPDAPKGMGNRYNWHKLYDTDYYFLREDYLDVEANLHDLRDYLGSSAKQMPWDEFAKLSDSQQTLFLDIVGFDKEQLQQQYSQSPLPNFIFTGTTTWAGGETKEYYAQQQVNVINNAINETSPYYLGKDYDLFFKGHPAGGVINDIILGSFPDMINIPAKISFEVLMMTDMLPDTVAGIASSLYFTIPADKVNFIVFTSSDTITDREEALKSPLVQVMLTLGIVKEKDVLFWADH
In words: Effect of NaCl on enzyme activity of deletion mutant of recombinant α2,6-sialyltransferase N2C1. The format is biochemical. Particulars: 0.2 to 1.5 M NaCl in the reaction solution; FIG. 4. How it is done: The transformed E. coli cells were cultured at 30° C. at 180 rpm for 12 hours in L Broth (containing ampicillin at a final concentration of 0.2 mg/ml and IPTG at a final concentration of 1 mM), followed by centrifugation to collect the cells. The collected cells were suspended in 20 mM sodium cacodyrate buffer (pH 5.0) and then ultrasonicated at 4° C. to homogenize the cells, thereby preparing a crude enzyme solution containing a sialyltransferase protein from the N2C1 gene. […] This N2C1 gene-derived sialyltransferase protein was used in the following experiment.
The enzyme reaction was accomplished in 20 μl reaction solution containing CMP-^14C-NeuAc as a glycosyl donor substrate (50.066 nmol, 25000 cpm), lactose as a glycosyl acceptor substrate (1 mmol), N2C1 (0.5 to 1.5 mU) and NaCl at a concentration varying from 0 to 2.5 M (30° C., 1 minute). After completion of the enzyme reaction, the radioactivity of NeuAc which was transferred to lactose under the respective conditions was measured to calculate the enzyme activity, thereby studying the effect of NaCl on the enzyme activity in each test range.
More specifically, after completion of the reaction, each reaction solution was supplemented with 1.98 ml of 5 mM phosphate buffer (pH 6.8) and applied to a AG1−×2Resin (PO43-form, 0.2×2 cm) column. […] The eluate (0 to 2 ml) from this column was measured for its radioactivity.

The nature of data set [4]: Confirmation of α2,3-sialyltransferase activity with pyridylaminated lactose as glycosyl acceptor, HPLC. It counts as biochemical. The conditions noted are these: pyridylaminated lactose and CMP-sialic acid, 25° C. An excerpt: Determination of the binding mode of sialic acid was accomplished by using a pyridylaminated sugar chain. The resulting enzyme was used to carry out an enzymatic reaction in the presence of a pyridylaminated sugar chain as a glycosyl acceptor substrate. The pyridylaminated sugar chain used for analysis was pyridylaminated lactose (Galβ1, 4Glc-PA, PA-Sugar Chain 026, Takara Bio Inc., Japan). As a standard, pyridylaminated α2,3sialyllactose (NeuAcα2,3Galβ1, 4Glc-PA, PA-Sugar Chain 029, Takara Bio Inc., Japan) was used. The glycosyl acceptor substrate, CMP-NeuAc and the enzyme were dissolved at 2.0 mM, 5.7 μM and about 20 mU/ml, respectively, in 25 μl of 20 mM cacodylate buffer (pH 6.0) or Bis-Tris buffer (pH 6.0), and then reacted at 25° C. for 3 to 18 hours. After completion of the reaction, the reaction solution was treated at 100° C. for 2 minutes to deactivate the enzyme, followed by HPLC to analyze the reaction product.
The HPLC system used was, Shimadzu LC10A (Shimadzu Corporation, Japan) and the analytical column used was Takara PALPAK Type R (Takara Bio Inc., Japan). The column which had been equilibrated with 100 mM acetate-triethylamine (pH 5.0) containing 0.15% N-butanol was injected with the reaction solution diluted with Eluent A (100 mM acetate-triethylamine, pH 5.0). For elution of the pyridylaminated sugar chain, Eluent A (100 mM acetate-triethylamine, pH 5.0) and Eluent B (100 mM acetate-triethylamine containing 0.5% n-butanol, pH 5.0) were used to successively elute the pyridylaminated sugar chain with a linear gradient of 30% to 100% Eluent B (0 to 35 minutes) and then 100% Eluent B (35 to 50 minutes). The analysis was performed under the following conditions: flow rate: 1 ml/min, column temperature: 40° C., detection: fluorescence (Ex: 320 nm, Em: 400 nm).
As in the case of Reference Example 1-1, pyridylaminated lactose was used as a glycosyl acceptor to carry out the enzyme reaction. After completion of the reaction, the reaction solution was thermally treated at 95° C. for 5 minutes to deactivate the enzyme, followed by HPLC analysis. It should be noted that the enzyme reaction was accomplished at 25° C. for 6 hours using pyridylaminated lactose and CMP-sialic acid dissolved at 2.0 μM and 5.7 μM, respectively, in 25 μl of 20 mM cacodylate buffer (pH 6.0) (Reaction 1). On the other hand, a control experiment (Reaction 2) was carried out using a reaction solution free from CMP-sialic acid. Further, to clarify the retention time of standards, the crude enzyme solution was deactivated by thermal treatment (95° C., 5 minutes) and tested in the presence of pyridylaminated lactose and pyridylaminated α2,3-sialyllactose.

For `[Cl-].[Na+]` [NaCl], the Radioactivity is recorded as 11071 in data set [1] (+NaCl, 0.5 M, 30° C., 1 minute) and 9733 in data set [2] (+NaCl, 0.5 M, 30° C., 1 minute). In addition, the “+NaCl/−NaCl” value in data set [1] (NaCl 0.5 M) was 1.2; in data set [2] (NaCl 0.5 M) it was 1.3. For the same molecule, in data set [3], the “enzyme activity compared to the absence of NaCl” value was “activated”.

B1: 224-N1C0: recombinant JT-ISH-224 α2,3-sialyltransferase lacking the signal peptide region, expressed in E. coli (protein)
chain: MLVFCKKMFFSVFISLMILGGCNSDSNHNNSDGNITKNKTIEVYVDRATLPTIQQMTQIINENSNNKKLISWSRYPINDEELLESINGSFFKNNSELIKSLDSMILTNDIKKVIINGNTLWAADVVNIIKSIEAFGKKTEIELNFYDDGSAEYVRLYDFSKLPESEQEYKISLSKDNILSSINGTQPFENVVENIYGFSQLYPTTYHMLRADIFETNLPLRSLKGVLSNNIKQMKWDYFKTFNSQQKDKFYNFTGFNPDEIMEQYKASPNKNFIFVGTNSGTATAEQQIDILTEAKNPNSPIITKSIQGFDLFFKGHPSATYNKQIIDAHNMIEIYNKIPFEALIMTDALPDAVGGMGSSVFFSLPNTVENKFIFYKSDTDIENNALIQVMIELNIVNRNDVKLISDLQ
modifications: OTHER INFORMATION: /gene=“224-23ST” /product=“beta-galactoside-alpha-2,3-sialyltransferase”
notes: recombinant JT-ISH-224 α2,3-sialyltransferase lacking the signal peptide region, expressed in E. coli
On to B1, for which the “α2,3-sialyltransferase activity (formation of pyridylaminated α2,3-sialyllactose)” value (shortened to “α2,3-sialyltransferase activity”) in data set [4] is on record as “a peak of pyridylaminated α2,3-sialyllactose was detected”.

B2: FAJ-N0C0: recombinant full-length α2,3-sialyltransferase of Vibrio sp. JT-FAJ-16 expressed in E. coli (protein)
chain: MKNIITKRMLIILSSLFTIIGCNNDNSTTTNNNAIEIYVDRATLPTIQQMTKIVSQKTSNKKLISWSRYPITDKSLLKKINAEFFKEQFELTESLKNIILSENIDNLIIHGNTLWSIDVVDIIKEVNLLGKNIPIELHFYDDGSAEYVRIYEFSKLPESEQKYKTSLSKNNIKFSIDGTDSFKNTIENIYGFSQLYPTTYHMLRADIFDTTLKINPLRELLSNNIKQMKWDYFKDFNYKQKDIFYSLTNFNPKEIQEDFNKNSNKNFIFIGSNSATATAEEQINIISEAKKENSSIITNSISDYDLFFKGHPSATFNEQIINAHDMIEINNKIPFEALIMTGILPDAVGGMGSSVFFSIPKEVKNKFVFYKSGTDIENNSLIQVMLKLNLINRDNIKLISDI
modifications: OTHER INFORMATION: /gene=“FAJ16-23ST” /product=“beta-galactoside-alpha2,3-sialyltransferase”
notes: recombinant full-length α2,3-sialyltransferase of Vibrio sp; JT-FAJ-16 expressed in E. coli
With B2, the “α2,3-sialyltransferase activity” value in data set [4] is “a peak of pyridylaminated α2,3-sialyllactose was detected”.

B3: 467-N2C0: recombinant JT-ISH-467 α2,3-sialyltransferase lacking the signal peptide region, expressed in E. coli (protein)
chain: MFVFCKKIFFLIFISLMILGGCNSDSKHNNSDGNITKNKTIEVYVDRATLPTIQQMTQIINENSNNKKLISWSRYPINDETLLESINGSFFKNRPELIKSLDSMILTNEIKKVIINGNTLWAVDVVNIIKSIEALGKKTEIELNFYDDGSAEYVRLYDFSRLPESEQEYKISLSKDNIQSSINGTQPFDNSIENIYGFSQLYPTTYHMLRADIFETNLPLTSLKRVISNNIKQMKWDYFTTFNSQQKNKFYNFTGFNPEKIKEQYKASPHENFIFIGTNSGTATAEQQIDILTEAKKPDSPIITNSIQGLDLFFKGHPSATYNQQIIDAHNMIEIYNKIPFEALIMTDALPDAVGGMGSSVFFSLPNTVENKFIFYKSDTDIENNALIQVMIELNIVNRNDVKLISDLQ
modifications: OTHER INFORMATION: /gene=“467-23ST” /product=“beta-galactoside-alpha2,3-sialyltransferase”
notes: recombinant JT-ISH-467 α2,3-sialyltransferase lacking the signal peptide region, expressed in E. coli
Turning to B3, the “α2,3-sialyltransferase activity” value in data set [4] is on record as “had α2,3-sialyltransferase activity”.

B4: 467-N0C0: recombinant full-length α2,3-sialyltransferase of Photobacterium phosphoreum JT-ISH-467 expressed in E. coli (protein)
chain: B3 chain
modifications: OTHER INFORMATION: /gene=“467-23ST” /product=“beta-galactoside-alpha2,3-sialyltransferase”
notes: recombinant full-length α2,3-sialyltransferase of Photobacterium phosphoreum JT-ISH-467 expressed in E. coli
As to B4, the “α2,3-sialyltransferase activity” value in data set [4] was “found to have α2,3-sialyltransferase activity”.

Source of the values: patent US20090087894A1, “Method for improving enzymatic activity of glycosyltransferases” (Japan Tobacco Inc., priority 2004, published 2009).
